Test results from patent US6303619A, “Meta-substituted acidic 8-phenylxanthine antagonists of A3 human adenosine receptors” (priority 1998, dated 2001).

Molecular target: T1, human A1 adenosine receptor (Homo sapiens, UniProt P30542)
T1 construct: expressed in transfected cells; host or cells: COS7 or CHO cells
T1 sequence (P30542 1-326): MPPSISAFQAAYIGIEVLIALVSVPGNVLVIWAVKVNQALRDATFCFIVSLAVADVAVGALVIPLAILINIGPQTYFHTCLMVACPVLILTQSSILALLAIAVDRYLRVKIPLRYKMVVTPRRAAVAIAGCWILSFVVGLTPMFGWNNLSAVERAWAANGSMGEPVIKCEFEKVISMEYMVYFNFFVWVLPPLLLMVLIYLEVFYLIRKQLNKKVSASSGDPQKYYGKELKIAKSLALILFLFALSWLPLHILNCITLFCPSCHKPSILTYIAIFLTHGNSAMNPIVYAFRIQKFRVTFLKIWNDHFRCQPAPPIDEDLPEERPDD
Test: competition binding, recombinant human A1 adenosine receptor
Settings: A3 versus A1
Procedure: Monolayer cell culture of transfected COS7 cells were dissociated with 1 mM EDTA in phosphate buffered saline and resuspended in 5 mM Tris, pH7.6/10 mM MgCl2. The cells were subjected to freeze-thaw lysis and the suspension was homogenized in a glass dounce homogenizer. The membranes were pelleted, resuspended in binding buffer, 50 mM Tris pH 7.6/10 mM MgCl2 and incubated with adenosine deaminase before the binding assay. The binding assay was performed by incubating 50-100 Fg of membranes with increasing concentrations of radiolabeled adenosine agonists. Bound ligand was separated from free ligand by filtration on a SKATRON CELL […] equipped with a receptor binding filtermat. Bound radioactivity was measured by scintillation counting. Substances which bind to or enhance binding to expressed human adenosine receptors in COS and CHO cells can be identified in competition binding assays with radiolabeled adenosine or xanthine analogs. […] Protein concentration was determined by tie method of Bradford ((1976) Anal. Biochem. 72: 248-250). […] Bound radioactivity was measured by scintillation counting in READY SAFE SCINTILLATION COCKTAIL (BECKMAN). […] Non-specific binding was determined in the presence of 100 FM CPA. Bound radioactivity was measured by scintillation counting in READY SAFE LIQUID SCINTILLATION COCKTAIL (BECKMAN).

- fold selectivity for A3 compared to human A1: 47 fold
SMILES: CCCn1c(=O)c2[nH]c(-c3cccc(C=CC(=O)O)c3)nc2n(CCC)c1=O [BW-3911]
